Our source for the T/C values is PubChem BioAssay AID276 (DTP/NCI, 2004).

“And” between values parts separate entries of the source, which are not always exact repeats. Equal entries are not always repeated. Inconclusive results and toxic doses are left out. Residues, ends and D or L forms follow the SMILES beside them. *: point of attachment. Trt = c1ccc(C(c2ccccc2)(c2ccccc2)*)cc1; Cbz = O=C(OCc1ccccc1)*

This experiment has as its system B6C3F1 mice, Lewis lung carcinoma iv, survival T/C. Kind of experiment: NCI In Vivo Anticancer Drug Screen. Data for tumor model Lewis Lung Carcinoma (intravenous) in B6C3F1 mice. To be noted: endpoint: median survival time, higher = longer survival. The method in brief: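 Tumors were transplanted into mice, which were then dosed with compound or vehicle. Survival was recorded in each group, and the treated figure was divided by the control figure.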

Setting [1] is: dose: 25.0 mg/kg/injection, schedule: Q01DX001 (ip), vehicle: saline.
Setting [2] is: dose: 50.0 mg/kg/injection, schedule: Q01DX001 (ip), vehicle: saline.
The mark [3] stands for this setting: dose: 100.0 mg/kg/injection, schedule: Q01DX001 (ip), vehicle: saline.
[4] abbreviates: dose: 12.5 mg/kg/injection, schedule: Q01DX009 (ip), vehicle: saline.
Where [5] appears, read: dose: 25.0 mg/kg/injection, schedule: Q01DX009 (ip), vehicle: saline.
[6] abbreviates: dose: 50.0 mg/kg/injection, schedule: Q01DX009 (ip), vehicle: saline.
Where [7] appears, read: dose: 100.0 mg/kg/injection, schedule: Q01DX009 (ip), vehicle: saline.
Setting [8] is: dose: 200.0 mg/kg/injection, schedule: Q01DX009 (ip), vehicle: saline.
The mark [9] stands for this setting: dose: 0.37 mg/kg/injection, schedule: Q01DX009 (ip), vehicle: saline with Tween-80.
[10] abbreviates: dose: 0.75 mg/kg/injection, schedule: Q01DX009 (ip), vehicle: saline with Tween-80.
[11] abbreviates: dose: 1.5 mg/kg/injection, schedule: Q01DX009 (ip), vehicle: saline with Tween-80.
The mark [12] stands for this setting: dose: 3.0 mg/kg/injection, schedule: Q01DX009 (ip), vehicle: saline with Tween-80.
[13] abbreviates: dose: 50.0 mg/kg/injection, schedule: Q01DX009 (ip), vehicle: suspension in saline.
[14] abbreviates: dose: 100.0 mg/kg/injection, schedule: Q01DX009 (ip), vehicle: suspension in saline.
The mark [15] stands for this setting: dose: 200.0 mg/kg/injection, schedule: Q01DX009 (ip), vehicle: suspension in saline.

For `CO[C@@]12[C@H](COC(N)=O)C3=C(C(=O)C(C)=C(N)C3=O)N1C[C@@H]1N[C@@H]12`, the T/C is, setting by setting: (dose: 0.12 mg/kg/injection, schedule: Q01DX009 (ip), vehicle: saline) 101 % of control; (dose: 0.25 mg/kg/injection, schedule: Q01DX009 (ip), vehicle: saline) 103 % of control and 109 % of control; (dose: 0.5 mg/kg/injection, schedule: Q01DX009 (ip), vehicle: saline) 118 % of control; (dose: 1.0 mg/kg/injection, schedule: Q01DX009 (ip), vehicle: saline) 107 % of control.
`COC(=O)C12OCC34C(CC5C(C)C6=CC(=O)OC6=CC5(C)C3C(O)C1O)OC(=O)C(OC(C)=O)C24` (configuration not stated): the T/C is 102 % of control (dose: 2.0 mg/kg/injection, schedule: Q01DX009 (ip), vehicle: saline + alcohol); 97 % of control (dose: 4.0 mg/kg/injection, schedule: Q01DX009 (ip), vehicle: saline + alcohol); 96 % of control (dose: 8.0 mg/kg/injection, schedule: Q01DX009 (ip), vehicle: saline + alcohol); 98 % of control (dose: 16.0 mg/kg/injection, schedule: Q01DX009 (ip), vehicle: saline + alcohol); 114 % of control (dose: 125.0 micrograms/kg/injection, schedule: Q01DX009 (ip), vehicle: saline + alcohol); 118 % of control (dose: 250.0 micrograms/kg/injection, schedule: Q01DX009 (ip), vehicle: saline + alcohol). Besides, the T/C is, setting by setting: (dose: 500.0 micrograms/kg/injection, schedule: Q01DX009 (ip), vehicle: saline + alcohol) 109 % of control; (dose: 1000.0 micrograms/kg/injection, schedule: Q01DX009 (ip), vehicle: saline + alcohol) 106 % of control; (dose: 2000.0 micrograms/kg/injection, schedule: Q01DX009 (ip), vehicle: saline + alcohol) 112 % of control.
Regarding `COC(=O)C(CSC(c1ccccc1)(c1ccccc1)c1ccccc1)NC(=O)C(CC(N)=O)NC(=O)OCc1ccccc1` (stereo not drawn) (Cbz-Asn-Cys(Trt)-OMe; configuration not given here), the T/C by setting is: (dose: 12.5 mg/kg/injection, schedule: Q01DX009 (ip), vehicle: distilled water + Tween-80) 97 % of control; (dose: 25.0 mg/kg/injection, schedule: Q01DX009 (ip), vehicle: distilled water + Tween-80) 103 % of control; (dose: 50.0 mg/kg/injection, schedule: Q01DX009 (ip), vehicle: distilled water + Tween-80) 103 % of control; (dose: 100.0 mg/kg/injection, schedule: Q01DX009 (ip), vehicle: distilled water + Tween-80) 98 % of control; (dose: 200.0 mg/kg/injection, schedule: Q01DX009 (ip), vehicle: distilled water + Tween-80) 97 % of control; (dose: 400.0 mg/kg/injection, schedule: Q01DX009 (ip), vehicle: distilled water + Tween-80) 98 % of control.
With `C=C(C)/C([O-])=N/[N+](C)(C)CC(O)CCCCCCCCCCCC` (configuration not stated), the T/C reads like this: (dose: 1.56 mg/kg/injection, schedule: Q01DX001 (ip), vehicle: saline) 96 % of control; (dose: 3.12 mg/kg/injection, schedule: Q01DX001 (ip), vehicle: saline) 104 % of control; (dose: 6.25 mg/kg/injection, schedule: Q01DX001 (ip), vehicle: saline) 98 % of control; (dose: 12.5 mg/kg/injection, schedule: Q01DX001 (ip), vehicle: saline) 109 % of control; under setting [1], 103 % of control and 106 % of control; under setting [2], 98 % of control and 100 % of control. Moreover, the T/C was 95 % of control under setting [3] and 97 % of control (dose: 200.0 mg/kg/injection, schedule: Q01DX001 (ip), vehicle: saline).
On to `O=P1(N(CCCl)CCCl)NCCCO1` (configuration not stated), for which the T/C reads like this: (dose: 6.0 mg/kg/injection, schedule: Q01DX009 (ip), vehicle: saline) 105 % of control; (dose: 6.25 mg/kg/injection, schedule: Q01DX009 (ip), vehicle: saline) 108 % of control; (dose: 12.0 mg/kg/injection, schedule: Q01DX009 (ip), vehicle: saline) 116 % of control; under setting [4], 123 % of control; under setting [1], 110 % of control; under setting [5], 191 % of control. Besides, the T/C was 120 % of control (dose: 37.0 mg/kg/injection, schedule: Q01DX001 (ip), vehicle: saline); 103 % of control (dose: 48.4 mg/kg/injection, schedule: Q01DX001 (ip), vehicle: saline); 116 % of control and 122 % of control under setting [2]; 337 % of control under setting [6]; 115 % of control (dose: 64.4 mg/kg/injection, schedule: Q01DX001 (ip), vehicle: saline); 171 % of control (dose: 75.0 mg/kg/injection, schedule: Q01DX001 (ip), vehicle: saline). In addition, the T/C is 151 % of control and 152 % of control and 188 % of control under setting [3]; 349 % of control (dose: 150.0 mg/kg/injection, schedule: Q01DX001 (ip), vehicle: saline); 230 % of control (dose: 300.0 mg/kg/injection, schedule: Q01DX001 (ip), vehicle: saline); 312 % of control (dose: 400.0 mg/kg/injection, schedule: Q01DX001 (ip), vehicle: saline).
On to `Nc1nc(F)nc2c1ncn2C1OC(COP(=O)(O)O)C(O)C1O` (configuration not stated), for which the T/C is, setting by setting: under setting [4], 105 % of control; under setting [5], 102 % of control; under setting [6], 103 % of control; under setting [7], 114 % of control; under setting [8], 87 % of control.
Regarding `CCOC(=O)C1(c2ccccc2)C(=O)Oc2ccccc21` (configuration not stated), the T/C reads like this: (dose: 12.5 mg/kg/injection, schedule: Q01DX009 (ip), vehicle: saline with Tween-80) 97 % of control; (dose: 25.0 mg/kg/injection, schedule: Q01DX009 (ip), vehicle: saline with Tween-80) 97 % of control; (dose: 50.0 mg/kg/injection, schedule: Q01DX009 (ip), vehicle: saline with Tween-80) 96 % of control; (dose: 100.0 mg/kg/injection, schedule: Q01DX009 (ip), vehicle: saline with Tween-80) 97 % of control; (dose: 200.0 mg/kg/injection, schedule: Q01DX009 (ip), vehicle: saline with Tween-80) 99 % of control; (dose: 400.0 mg/kg/injection, schedule: Q01DX009 (ip), vehicle: saline with Tween-80) 99 % of control.
For `Cc1cc2c(C(C)C)c(O)c(O)c(C=O)c2c(O)c1-c1c(C)cc2c(C(C)C)c(O)c(O)c(C=O)c2c1O`, the T/C was 101 % of control under setting [9], 101 % of control under setting [10], 105 % of control under setting [11] and 106 % of control under setting [12].
Turning to `O=C(NO)c1ccc(O)c(O)c1`, the T/C is, setting by setting: under setting [5], 100 % of control; under setting [6], 98 % of control; under setting [13], 98 % of control; under setting [7], 101 % of control; under setting [14], 110 % of control; under setting [8], 100 % of control. For the same compound, the T/C under setting [15] was 118 % of control; the T/C (dose: 400.0 mg/kg/injection, schedule: Q01DX009 (ip), vehicle: saline) was 158 % of control; the T/C (dose: 400.0 mg/kg/injection, schedule: Q01DX009 (ip), vehicle: suspension in saline) is 124 % of control.
As to `Cc1cc2nc3c(=O)[nH]c(=O)nc-3n(CC(O)C(O)C(O)C(O)CO)c2cc1C` (configuration not stated), the T/C (dose: 25.0 mg/kg/injection, schedule: Q01DX009 (ip), vehicle: suspension in saline) was 95 % of control; the T/C under setting [13] is 110 % of control; the T/C under setting [14] was 111 % of control; the T/C under setting [15] was 115 % of control.
As to `N#CC(=C1SCS1)[N+](=O)[O-]`, the T/C by setting is: under setting [9], 98 % of control; under setting [10], 107 % of control; under setting [11], 106 % of control; under setting [12], 109 % of control; (dose: 6.0 mg/kg/injection, schedule: Q01DX009 (ip), vehicle: saline with Tween-80) 106 % of control; (dose: 12.0 mg/kg/injection, schedule: Q01DX009 (ip), vehicle: saline with Tween-80) 92 % of control.
